{"source": "patent US10883981B2", "about": "“Fluorescent fusion polypeptide, encoding nucleic acid, and cell comprising said polypeptide” (priority 2012, dated 2021)", "key": {"[1]": {"test_system": "U2OS stably expressing fluorescent DAG biosensor", "assay": "DAG biosensor fluorescence redistribution (internalization) assay", "protocol": "Cellular distribution of DAG biosensor stimulated cells. […] DAG biosensor activity was determined measuring the generation of the vesicle using image analysis algorithms.\nAs with the previous examples, in order to assess whether the activation of the above mentioned polypeptide induces intracellular fluorescence redistribution in living cells, peptide turboGFP was cloned as the fluorescent peptide and the cellular localization of the biosensor was analysed upon diacylglycerol induced activation. In this sense, U2O2 cell line was stably transfected with the plasmid construction that contains the above mentioned biosensor's coding sequence. […] As with the previous examples, activity was calculated as an increment of granularity by treating these cells with increasing dosages of PMA."}, "[2]": {"test_system": "HEK293 and U2O2 cells stably transfected with calcium biosensor", "assay": "Calcium biosensor cellular localization upon calcium induced activation", "format": "cell-based", "details": "10 ng/ml of PMA and 1 uM of ionomycin applied together", "from_the_text": "After transfection, both cell lines presented a membrane distribution of the fluorescence."}, "[3]": {"target": "human Tachykinin receptor 1 (Neurokinin 1 receptor) (Homo sapiens, UniProt P25103)", "sequence (P25103 whole entry)": "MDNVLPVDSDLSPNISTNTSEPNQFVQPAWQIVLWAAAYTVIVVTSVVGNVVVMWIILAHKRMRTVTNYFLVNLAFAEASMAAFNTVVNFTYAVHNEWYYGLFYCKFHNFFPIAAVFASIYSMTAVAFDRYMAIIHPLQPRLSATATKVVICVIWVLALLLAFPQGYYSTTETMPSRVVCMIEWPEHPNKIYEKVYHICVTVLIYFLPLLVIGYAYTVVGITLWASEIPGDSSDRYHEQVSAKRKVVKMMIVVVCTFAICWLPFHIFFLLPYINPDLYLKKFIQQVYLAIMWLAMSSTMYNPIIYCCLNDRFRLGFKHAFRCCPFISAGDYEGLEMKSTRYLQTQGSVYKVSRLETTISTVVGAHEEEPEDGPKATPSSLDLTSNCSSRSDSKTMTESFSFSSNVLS", "details": "10 uM, 6 hours, U2OS expressing human Neurokinin receptor 1 and calcium biosensor", "protocol": "Secondly, in order to determine whether calcium induces a significant conformational change within a physiological dynamic range, the U2O2 biosensor stable cell line was stably transfected with the human Tachykinin receptor 1.\nThe double stable cell line was seeded at 20,000 cells per well on 96-mm optical plates, and cultured in 200 ul of DMEM F12 supplemented with 10% fetal bovine serum. For fluorescent biosensor redistribution, cells were stimulated with different concentrations of the agonist Substancia P during 6 hours. After treatment, the nucleus was stained with DAPI and biosensor fluorescence redistribution was detected by fluorescence using image analysis algorithms. […] The activity was calculated as an increment of the granularity of these cells. Cells were treated with 11 log dilution series (n=5)."}}}
{"molecule": "CC(C)NCC(O)c1ccc(O)c(O)c1", "note": "(centres unmarked) [Isoproterenol]", "values": [{"measurement": "EC50", "setting": "[1]; Homo sapiens, U2OS, 4 h, read-out: Ec50, biosensor redistribution (increment of granularity)", "result": 0.000289, "unit": "ng/mL"}]}
{"molecule": "CCCCCCCCCCCCCC(=O)O[C@@H]1[C@@H](C)[C@@]2(O)[C@@H](C=C(CO)C[C@]3(O)C(=O)C(C)=C[C@@H]23)[C@@H]2C(C)(C)[C@]12OC(C)=O", "note": "[PMA]", "values": [{"measurement": "Cellular distribution of fluorescent DAG biosensor after treatment", "setting": "[1]; 25 ng/ml, 4 hours, U2OS expressing DAG biosensor", "result": "internalized in vesicles in the citosol"}, {"measurement": "Membrane distribution of calcium biosensor after raising intracellular calcium", "setting": "[2]", "result": "substantial decrease in membrane distribution"}]}
{"molecule": "C[C@H](CCC(=O)O)C[C@H](C)C[C@H](C)C(=O)/C=C(\\O)[C@H](C)C[C@H](C)C/C=C/[C@@H](C)[C@@H](O)[C@@H](C)[C@@H](O)C[C@@H]1CC[C@@](C)([C@H]2CC[C@@](C)([C@@H](C)O)O2)O1", "note": "[ionomycin]", "values": [{"measurement": "Membrane distribution of calcium biosensor after raising intracellular calcium", "setting": "[2]", "result": "substantial decrease in membrane distribution"}]}
{"molecule": "Substance P", "values": [{"measurement": "Cellular distribution of fluorescent calcium biosensor after treatment", "setting": "[3]", "result": "internalized in vesicles in the citosol"}]}
